Measurements from publication PMC10702189, “Tetrazine Glycoconjugate for Pretargeted Positron Emission Tomography Imaging of trans-Cyclooctene-Functionalized Molecular Spherical Nucleic Acids” (ACS Omega, 2023).

How the values were obtained:
[1] = Radioactivity distribution in blood components after i.v. injection in healthy mice; type: in vivo; details: for Proportion of intact tracer in plasma: radio-HPLC
Procedure: To measure the radioactivity binding to blood cells, the blood obtained by cardiac puncture was placed into a lithium heparin tube, mixed according to the manufacturer’s instructions, and placed on ice. The blood sample was centrifuged at 4 °C for 5 min at 2118 × g. The plasma was separated by pipetting, and blood cells and plasma radioactivities were measured with a 1480 Wizard gamma counter (PerkinElmer/Wallac, Turku, Finland).
To determine the radioactivity portion bound to plasma proteins, plasma was mixed with an equal volume of acetonitrile and centrifuged at 14000 × g for 2 min at r.t. The radioactivity of both the supernatant and the protein pellet was measured with Wizard.
To determine the portion of intact tracer in plasma, a sample of deproteinized plasma supernatant was diluted with 0.1% TFA in water and analyzed with radio-HPLC.[60]

[2] = Stability in end product formulation by analytical radio-HPLC; type: physicochemical; details: for 6 h from EOS, end product formulation (PBS, ethanol ≤10%) at r.t.
Procedure: Chemical and radiochemical purity and stability of precursors and radiotracers were measured with analytical HPLC (Hitachi LaChrom Elite, Schaumburg, USA). Jupiter Proteo reversed-phase C18 column (4 μm, 250 mm × 4.6 mm) was used at a flow rate of 1 mL/min. HPLC eluents were A, 0.1% trifluoroacetic acid (TFA, v/v) in water; B, 0.1% TFA in acetonitrile. The gradient changed from 15% to 35% in 0–15 min. For radiolabeled MSNA quality control, SEC at a flow rate of 1 mL/min was used (Waters Protein-Pak 33SW (7.5 × 300 mm), eluent 0.1 M KH2PO4, pH 7.0).
The cyclotron produced [^18F]fluoride, dissolved in ^18O-enriched water (Rotem Industries Limited, Arava, Israel), was trapped in a Sep-Pak QMA Plus Light cartridge (Waters, preconditioned with 10 mL of 0.5 M K2CO3, 15 mL of water). [^18F]F^– was eluted from the cartridge with 2 mL of QMA-eluent solution (stock solution contains 237.5 mg of Kryptofix 2.2.2, 42.5 mg of potassium carbonate, 2 mL of Milli-Q water in 50 mL of acetonitrile). The reaction mixture was evaporated to dryness with Ar gas flow (70 mL/min for 10 min, and then 80 mL/min for 5–10 min more) under heating at 120 °C. […] The stability of [^18F]FDG-Tz was analyzed by analytical radio-HPLC up to 6 h after EOS in the end product formulation at r.t.

Blood cell binding of radioactivity ([1]; 15 min postinjection): 37.6% ± 3.0 | Plasma protein binding of radioactivity ([1]; 15 min postinjection): 9.1% ± 3.5 | Blood cell binding of radioactivity ([1]; 60 min postinjection): 58.1% | Plasma protein binding of radioactivity ([1]; 60 min postinjection): 22.7% | Proportion of intact tracer in plasma ([1]; 60 min postinjection): 52% | Proportion of intact tracer in plasma ([1]; first time point (15 min, n = 3)): 93.7% ± 5.1 | Radiochemical purity retained (stability) [2]: > 98%
Compound: O=C(CCON=C[C@H]([18F])[C@@H](O)[C@H](O)[C@H](O)CO)NCc1ccc(-c2nncnn2)cc1 [[^18F]FDG-Tz]
